This passage reports inhibition results from US20160272645A1, “Heterocyclic Compounds and Methods of Use” (MEDIVATION TECHNOLOGIES, INC., priority 2013, published 2016).

The target of one assay is T1, BTK (Homo sapiens, UniProt Q06187).
T1 construct: purchased Reaction Biology Corporation
As to the kind of experiment: BTK kinase profiling, HotSpot radiometric assay (Reaction Biology). In kind it is biochemical. As to conditions: ATP 10 μM; for inhibition at 0.01 µM: compound 0.01 μM, read-out: BTK @ 0.01 μM (% Inh); for inhibition at 0.1 µM: compound 0.1 μM, read-out: BTK @ 0.1 μM (% Inh); for inhibition at 1 µM: compound 1 μM, read-out: BTK @ 1 μM (% Inh). The procedure: (§1) Compounds of the invention were profiled in a 10 dose IC50 panel against BTK and PI3Kδ, both provided by Reaction Biology Corporation.
BTK assay: In vitro profiling protein kinases was performed using the “HotSpot” assay platform. Briefly, specific kinase/substrate pairs along with required cofactors were prepared in reaction buffer. Compounds were prepared as 10 mM stock solutions in DMSO. Compounds were delivered into the reaction, followed 15-20 minutes later by addition of a mixture of ATP (Sigma, St. Louis Mo.) and ^33P ATP (Perkin Elmer, Waltham Mass.) to a final concentration of 10 μM. Reactions were carried out at RT for 120 min, followed by spotting of the reactions onto P81 ion exchange filter paper (Whatman Inc., Piscataway, N.J.). Unbound phosphate was removed by extensive washing of filters in 0.75% Phosphoric acid. […] ICso values and curve fits were obtained using Prism (GraphPad Software). Buffer Conditions: 20 mM Hepes (pH 7.5), 10 mM MgCl2, 1 mM EGTA, 0.02% Brij35, 0.02 mg/mL BSA, 0.1 mM Na3VO4, 2 mM DTT, 1% DMSO.

Assay [1] concerns CD69+B220+ cells (mouse spleen cells). As to the kind of experiment: B cell activation assay (IgD-stimulated CD69 on B220+ spleen cells, FACS). In kind it is cell-based. As to conditions: 100 nM test compound, 30 min, then IgD 3 μg/mL 4 h, read-out: CD69 @ 100 nM (% Inh). As to the method:
1 Female mouse approximately 2 months old was euthanized with CO2 and the spleen removed. The tissue was homogenized with a polished glass microscope slide. The cells were collected in 5 mL complete medium (RPMI+10% FBS+pen/strep), placed in a 15 mL falcon tube and centrifuged at 500×g for 5 min. The supernatant was discarded and the pellet was resuspended in 3 mL of ACK lysis buffer (NH4Cl 0.17M, KHCO3 10 mM, EDTA-Na2 0.1 mM, pH 7.2), incubated at 37° C. for 5 min. 2 mL complete medium was added and the mixture centrifuged at 500×g for 5 min. The supernatant was discarded and the pellet resuspended in 1 mL complete medium. The mixture was passed through a […] cell strainer and collect in 50 mL falcon tube. Enough medium was added to have a total of 10 mL. The cells were counted and seeded in 24 or 48-well plate in 1 mL complete medium at 10^6 cells/mL. The plate was placed in a 37° C. incubator for 15 min. The cells were treated for 30 min at 37° C. with 100 nM test compound dissolved in 100% DMSO. 3 μL IgD (Accurate chemical and scientific corp.) was added at a final concentration of 3 μg/mL and the mixture incubated at 37° C. for 4 h. The cells were collected in 1.5 mL eppendorf tubes, centrifuged at 500×g for 5 min and then resuspended in 100 μL of PBS+2% FBS. The following antibodies were added: α-B220 PE (pharmingen #553090), α-CD69 APC (pharmingen #60689), live/dead fixable aqua dead cell stain kit (life technologies # L34957) all at 1:300, and the mixture incubated for 15 min at 4° C. in the dark. To this was added 900 μL of PBS+2% FBS and the mixture centrifuged at 500×g for 5 min. The supernatant was removed and the pellet resuspended in 300 μL of PBS+2% FBS and mixed well. The mixture was transferred to a cytometer tube. The samples were run in the FACS Canto II cytometer and quantified by the number of CD69+B220+ cells as a percentage of the total number of B220+ alive cells.

For assay [2], the target named is T2, PI3Kδ (Homo sapiens, UniProt O00329).
T2 construct: purchased Reaction Biology Corporation
As to the kind of experiment: PI3Kδ kinase profiling, HTRF PIP3 displacement assay (Reaction Biology). In kind it is biochemical. As to conditions: ATP 10 μM; for inhibition at 0.01 µM: compound 0.01 μM, read-out: PI3Kδ @ 0.01 μM (% Inh); for inhibition at 0.1 µM: compound 0.1 μM, read-out: PI3Kδ @ 0.1 μM (% Inh). Background: Time-resolved FRET reads energy transfer from a long-lived donor to a nearby acceptor.

Assay [3] concerns the target T2, PI3Kδ. The assay is described as above. In kind it is biochemical. As to conditions: compound 1 μM; ATP 10 μM; read-out: PI3Kδ @ 1 μM (% Inh).
From the text: as §1
PI3Kδ assay: The PIP3 product is detected by displacement of biotin-PIP3 from an energy transfer complex consisting of Europium labeled anti-GST monoclonal antibody, a GST-tagged pleckstrin homology (PH) domain, biotinylated PIP3 and Streptavidin-Allophycocyanin (APC). Excitation of Europium in the complex results in an energy transfer to the APC and a fluorescent emission at 665 nm. The PIP3 product formed by PI3-Kinase (h) activity displaces biotin-PIP3 from the complex resulting in a loss of energy transfer and thus a decrease in signal. This is a 3-step reaction: First, the kinase reaction with PIP2 substrate is carried out in the presence of ATP (10 μM), and the reaction is quenched with stop Solution, and then finally detect by adding Detection Mixture followed by incubation (10 min). Reaction procedure: 1) Prepare substrate in freshly prepared Reaction Buffer. 2) Deliver kinase into the substrate solution and gently mix. 3) Deliver compounds in 100% DMSO (1 μM) into the kinase reaction mixture by Acoustic technology (Echo550; nanoliter range), incubate for 10 min at RT. 4) Deliver ATP into the reaction mixture to initiate the reaction. 5) Incubate for 30 min at 30° C. 6) Quench the reaction with Stop Solution. 7) Add Detection Mixture, and incubate for overnight. 8) Measure HTRF: Ex=320 nm, ratio of Em=615 nm and Em=665 nm. The emission ratio is converted into μM PIP3 production based on PIP3 standard curves. The nonlinear regression to obtain the standard curve and IC50 values are performed using Graphpad Prism software. Assay Buffer: HEPES 50 mM (pH7.0), NaN3 0.02%, BSA 0.01%, Orthovanadate 0.1 mM, 1% DMSO. Detection buffer: HEPES 10 mM (pH7.0), BSA 0.02%, KF 0.16 M, EDTA 4 mM. Substrate: 10 μM PIP2 substrate (PI(4,5)P2).

T1 sequence (Q06187 whole entry): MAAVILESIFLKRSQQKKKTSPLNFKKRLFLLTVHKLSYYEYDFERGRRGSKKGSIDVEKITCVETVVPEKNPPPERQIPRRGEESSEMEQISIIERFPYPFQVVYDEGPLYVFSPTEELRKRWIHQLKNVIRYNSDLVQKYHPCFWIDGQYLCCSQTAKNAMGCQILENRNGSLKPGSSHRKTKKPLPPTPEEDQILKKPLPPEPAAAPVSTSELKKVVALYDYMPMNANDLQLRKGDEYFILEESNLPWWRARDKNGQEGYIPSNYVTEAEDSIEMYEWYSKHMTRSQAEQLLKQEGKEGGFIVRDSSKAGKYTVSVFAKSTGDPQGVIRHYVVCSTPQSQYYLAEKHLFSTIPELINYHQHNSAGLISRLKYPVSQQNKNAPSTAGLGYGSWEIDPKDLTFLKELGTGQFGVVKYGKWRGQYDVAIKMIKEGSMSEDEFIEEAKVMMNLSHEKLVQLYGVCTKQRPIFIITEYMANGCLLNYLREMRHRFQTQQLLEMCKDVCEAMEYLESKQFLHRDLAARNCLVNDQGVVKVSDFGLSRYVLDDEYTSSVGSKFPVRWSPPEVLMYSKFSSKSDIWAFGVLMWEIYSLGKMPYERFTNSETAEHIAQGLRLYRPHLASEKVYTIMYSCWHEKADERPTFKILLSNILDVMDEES
T2 sequence (O00329 whole entry): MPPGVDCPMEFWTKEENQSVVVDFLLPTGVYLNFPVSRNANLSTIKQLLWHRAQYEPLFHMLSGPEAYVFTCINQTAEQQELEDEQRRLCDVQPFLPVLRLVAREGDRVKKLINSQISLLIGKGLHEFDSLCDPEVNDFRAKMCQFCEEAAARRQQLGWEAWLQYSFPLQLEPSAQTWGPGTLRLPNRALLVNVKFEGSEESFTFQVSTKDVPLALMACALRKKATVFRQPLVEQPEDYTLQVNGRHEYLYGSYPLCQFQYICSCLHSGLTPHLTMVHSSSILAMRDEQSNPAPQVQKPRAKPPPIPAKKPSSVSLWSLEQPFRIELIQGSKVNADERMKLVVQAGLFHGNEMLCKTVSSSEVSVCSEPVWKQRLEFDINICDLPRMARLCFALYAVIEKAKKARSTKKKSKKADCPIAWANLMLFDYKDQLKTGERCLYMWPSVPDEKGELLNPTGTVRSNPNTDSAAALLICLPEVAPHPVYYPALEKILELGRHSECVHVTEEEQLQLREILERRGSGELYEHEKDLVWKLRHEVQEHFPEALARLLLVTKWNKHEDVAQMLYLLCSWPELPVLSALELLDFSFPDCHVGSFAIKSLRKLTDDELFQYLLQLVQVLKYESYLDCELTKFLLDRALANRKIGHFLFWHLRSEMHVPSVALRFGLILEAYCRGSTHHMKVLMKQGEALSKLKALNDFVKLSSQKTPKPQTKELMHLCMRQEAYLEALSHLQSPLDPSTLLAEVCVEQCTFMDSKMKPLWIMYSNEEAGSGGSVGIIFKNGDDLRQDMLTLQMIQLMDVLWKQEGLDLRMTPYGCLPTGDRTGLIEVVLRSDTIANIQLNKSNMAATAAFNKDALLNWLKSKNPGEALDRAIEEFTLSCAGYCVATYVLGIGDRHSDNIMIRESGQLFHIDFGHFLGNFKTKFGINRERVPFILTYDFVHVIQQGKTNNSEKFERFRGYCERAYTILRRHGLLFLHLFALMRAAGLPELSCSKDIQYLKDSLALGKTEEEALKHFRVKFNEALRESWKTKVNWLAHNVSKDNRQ
T2 sequence (P27986 whole entry partner): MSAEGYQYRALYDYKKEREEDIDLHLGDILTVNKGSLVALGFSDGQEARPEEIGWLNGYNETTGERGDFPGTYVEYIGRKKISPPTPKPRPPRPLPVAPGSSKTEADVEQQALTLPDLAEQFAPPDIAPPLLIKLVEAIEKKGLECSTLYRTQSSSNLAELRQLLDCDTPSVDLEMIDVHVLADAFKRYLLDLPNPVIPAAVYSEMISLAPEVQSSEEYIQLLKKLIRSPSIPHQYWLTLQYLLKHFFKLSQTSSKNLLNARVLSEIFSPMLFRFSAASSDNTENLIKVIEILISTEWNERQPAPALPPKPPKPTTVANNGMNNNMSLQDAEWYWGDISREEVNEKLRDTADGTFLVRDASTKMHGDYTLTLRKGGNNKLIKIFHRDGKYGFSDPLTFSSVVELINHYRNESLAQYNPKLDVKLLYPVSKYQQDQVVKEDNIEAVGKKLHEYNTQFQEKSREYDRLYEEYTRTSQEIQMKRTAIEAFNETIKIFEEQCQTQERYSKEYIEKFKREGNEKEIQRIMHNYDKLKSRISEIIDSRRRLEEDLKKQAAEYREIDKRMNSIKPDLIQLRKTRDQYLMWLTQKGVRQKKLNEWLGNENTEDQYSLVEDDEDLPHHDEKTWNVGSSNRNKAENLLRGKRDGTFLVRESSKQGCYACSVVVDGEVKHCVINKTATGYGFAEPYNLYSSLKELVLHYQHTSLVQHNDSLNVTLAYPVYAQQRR

As to `C=CC(=O)N(CCn1nc(-c2ccc(Cl)c(O)c2)c2c(N)ncnc21)Cc1ccc(OC)cc1` [Compound 17, N-{2-[4-amino-3-(4-chloro-3-hydroxyphenyl)-1H-pyrazolo[3,4-d]pyrimidin-1-yl]ethyl}-N-[(4-methoxyphenyl)methyl]prop-2-enamide], the inhibition at 0.01 µM stood at 90.3% at BTK and 13.6% at PI3Kδ [2]. Moreover, the inhibition at 0.1 µM is 96.2% at BTK, -61.1 ± 47.1% in assay [1] and 41.1% on PI3Kδ [2].
Turning to `C=CC(=O)N(CCn1nc(-c2cc(F)cc(OC(C)=O)c2)c2c(N)ncnc21)Cc1ccccc1` [Compound 9, 3-{4-amino-1-[2-(N-benzylprop-2-enamido)ethyl]-1H-pyrazolo [3,4-d]pyrimidin-3-yl}-5-fluorophenyl acetate], the inhibition at 0.1 µM on BTK was 47.3%; at PI3Kδ [2], 47%. Besides, the inhibition at 1 µM on BTK was found to be 91.6%; on PI3Kδ [3], 85.2%.
Regarding `Nc1ncnc2c1c(-c1cc(O)c(F)c(F)c1)nn2CCNCc1cccnc1` [Compound 23, 5-(4-amino-1-{2-[(pyridin-3-ylmethyl)amino]ethyl}-1H-pyrazolo[3,4-d]pyrimidin-3-yl)-2,3-difluorophenol], the inhibition at 0.01 µM on BTK worked out at 12.7%; at PI3Kδ [2] it was 3.31%. The inhibition at 0.1 µM was determined as 60.5% on BTK, 39.7 ± 10.2% in assay [1] and 66.7% on PI3Kδ [2].
On to `Nc1ncnc2c1c(-c1cc(O)c(F)c(F)c1)nn2CCNc1ncccn1` [Compound 21, 5-(4-amino-1-{2-[(pyrimidin-2-yl)amino]ethyl}-1H-pyrazolo[3,4-d]pyrimidin-3-yl)-2,3-difluorophenol], for which the values for the inhibition at 0.01 µM at BTK and at PI3Kδ [2] were 9.64% and 8.59%, respectively. Besides, the inhibition at 0.1 µM at BTK stood at 37.1%; in assay [1], 18.2 ± 2.92%; on PI3Kδ [2], 56.6%.
`C=CC(=O)N(CCn1nc(-c2ccc(Cl)c(O)c2)c2c(N)ncnc21)Cc1ccco1` [Compound 20, N-{2-[4-amino-3-(4-chloro-3-hydroxyphenyl)-1H-pyrazolo[3,4-d]pyrimidin-1-yl]ethyl}-N-(furan-2-ylmethyl)prop-2-enamide]: the inhibition at 0.01 µM is 90.3% on BTK and 17.1% on PI3Kδ [2]. Besides, the inhibition at 0.1 µM on BTK was 95.4%; in assay [1], -82 ± 14.7%; at PI3Kδ [2], 40.6%.
On to `C=CC(=O)N(CCn1nc(-c2ccc(Cl)c(O)c2)c2c(N)ncnc21)Cc1ccc(Cl)cc1` [Compound 15, N-{2-[4-amino-3-(4-chloro-3-hydroxyphenyl)-1H-pyrazolo[3,4-d]pyrimidin-1-yl]ethyl}-N-[(4-chlorophenyl)methyl]prop-2-enamide], for which the inhibition at 0.01 µM is 48.5% on BTK and 7.57% on PI3Kδ [2]. For the same compound, the inhibition at 0.1 µM at BTK was 92.1%; in assay [1], -103 ± 45.4%; on PI3Kδ [2] it was 31.1%.
Take `C=CC(=O)N(CCn1nc(-c2ccc(Oc3ccccc3)cc2)c2c(N)ncnc21)Cc1ccccc1` [Compound 24, N-{2-[4-amino-3-(4-phenoxyphenyl)-1H-pyrazolo[3,4-d]pyrimidin-1-yl]ethyl}-N-benzylprop-2-enamide]: the inhibition at 0.01 µM on BTK was 96.5%; at PI3Kδ [2], -32.3%. For the same compound, the inhibition at 0.1 µM on BTK stood at 96.7%; in assay [1], 55.8 ± 9.1%; on PI3Kδ [2], 0.74%.
For `Nc1ncnc2c1c(-c1cc(O)cc(F)c1)nn2CCNCc1ccccc1` [Compound 4, 3-{4-amino-1-[2-(benzylamino)ethyl]-1H-pyrazolo[3,4-d]pyrimidin-3-yl}-5-fluorophenol] the same measures were -1.37%, 1.78%, 14.8%, 39.1 ± 7.85% and 68%.
Regarding `C=CC(=O)N(CCn1nc(-c2ccc(Cl)c(O)c2)c2c(N)ncnc21)Cc1ccc(F)cc1` [Compound 14, N-{2-[4-amino-3-(4-chloro-3-hydroxyphenyl)-1H-pyrazolo[3,4-d]pyrimidin-1-yl]ethyl}-N-[(4-fluorophenyl)methyl]prop-2-enamide], the figures for the inhibition at 0.01 µM on BTK and on PI3Kδ [2] were 86.5% and 24.8%, respectively. In addition, the inhibition at 0.1 µM is 96.1% on BTK, -135 ± 55.8% in assay [1] and 55% on PI3Kδ [2].
Take `C=CC(=O)N(CCn1cc(-c2ccc(Cl)c(O)c2)c2c(N)ncnc21)Cc1ccc(F)cc1` [Compound 13, N-{2-[4-amino-5-(4-chloro-3-hydroxyphenyl)-7H-pyrrolo[2,3-d]pyrimidin-7-yl]ethyl}-N-[(4-fluorophenyl)methyl]prop-2-enamide]: the inhibition at 0.01 µM at BTK turned out to be 95.6%; at PI3Kδ [2], 14%. In addition, the inhibition at 0.1 µM on BTK is 98.6%; in assay [1], -165 ± 63%; on PI3Kδ [2], 43%.
Consider `Nc1ncnc2c1c(-c1cc(O)cc(F)c1)nn2CCN(Cc1ccccc1)C(=O)C1CC1` [Compound 8, N-{2-[4-amino-3-(3-fluoro-5-hydroxyphenyl)-1H-pyrazolo[3,4-d]pyrimidin-1-yl]ethyl}-N-benzylcyclopropanecarboxamide], for which the inhibition at 0.1 µM at BTK amounted to 9.54%; at PI3Kδ [2], 70%. Also, the inhibition at 1 µM at BTK worked out at 12.2%; at PI3Kδ [3] it was 86.1%.
Regarding `C=CC(=O)N(CCn1nc(-c2cc(F)c3c(c2)NCCO3)c2c(N)ncnc21)Cc1ccc(Cl)cc1` [Compound 18, N-{2-[4-amino-3-(8-fluoro-3,4-dihydro-2H-1,4-benzoxazin-6-yl)-1H-pyrazolo [3,4-d]pyrimidin-1-yl]ethyl}-N-[(4-chlorophenyl)methyl]prop-2-enamide], the inhibition at 0.01 µM at BTK was 62.5%; on PI3Kδ [2], 20.8%. The inhibition at 0.1 µM on BTK was 93.1%; in assay [1] it was -7.39 ± 6.26%; at PI3Kδ [2], 23.4%.
